Measurements from article PMC6151511, “Rational Design of Nucleoside–Bile Acid Conjugates Incorporating a Triazole Moiety for Anticancer Evaluation and SAR Exploration” (Molecules : A Journal of Synthetic Chemistry and Natural …, 2017).
Several values for one entry are separate records, joined by “and”; a condition that tells them apart may be missing. Equal entries are not always repeated. Where two headings read alike, the source gives them in different places.

Legend:
[1] = test system: K562 leukemia cells; design: method as in doi:10.1039/c3nj00513e; details: MTT; ref [6]; cited from earlier work
[2] = test system: HCT116 colon carcinoma; design: method as in doi:10.1039/c3nj00513e; details: MTT; ref [6]; cited from earlier work
[3] = test system: Normal human skin fibroblast cells; design: method as in doi:10.1039/c3nj00513e; details: MTT; ref [6]; read-out: IC50 FIBRO; cited from earlier work
[4] = test system: K562 leukemia cells; experiment: MTT assay, cell growth inhibition of K562 leukemia cells; type: cell-based
Experimental: (§1) All conjugated compounds prepared via click chemistry and listed in Table 1 were evaluated in vitro for their cytotoxic activity against K562 leukemia cells and the colon cancer cell line HCT116. Normal human skin fibroblast cells were chosen as a control and cisplatin served as a reference compound. The cytotoxicity was evaluated using the MTT assay (details are reported in the Materials and Methods section). In all experiments the cell growth inhibition of K562 and HCT116 was determined for each compound at concentrations of 10, 25 and 50 μM after 72 h of treatment and up to 100 μM in the case of fibroblasts.
(§2) Cell growth inhibition assays were carried out using the leukemia cell line K562 and colon carcinoma HCT116. Cell lines were obtained from ATCC (Manassas, VA, USA) and maintained in RPMI 1640, supplemented with 10% fetal bovine serum (FBS), penicillin (100 Units mL^−1), streptomycin (100 μg mL^−1) and glutamine (2 mM) (complete medium); the pH of the medium was 7.2 and the incubation was performed at 37 °C in a 5% CO2 atmosphere. Adherent cells were routinely used at 70% of confluence and passaged every 3 days by treatment with 0.05% Trypsin-EDTA (Lonza, Walkersville, MD, USA). K562 cells were routinely fed every 3 days.
(§3) The antiproliferative activity of the compounds was tested using the 3-(4,5-dimethylthiozol-2-yl)2,5-diphenyltetrazolium bromide solution (MTT) assay. K562 and HCT116 were seeded in triplicate in 96-well trays respectively at the density of 5 × 10^3 and 10^4 in 50 μL of complete medium. Stock solutions (50 mM) of each compound were made in DMSO and diluted in complete medium to give final concentrations of 50, 25 and 10 μM. Untreated cells were placed in every plate as a negative control. The cells were exposed to the compounds, in 100 μL total volume, for 72 h.

[5] = test system: HCT116 colon carcinoma; experiment: MTT assay, cell growth inhibition of HCT116 colon carcinoma; type: cell-based; details: for IC50: MTT, 72 h incubation, mean of three independent experiments ± SD, IC50 > 50 means inhibition <20% at 50 μM
Experimental: as §1, §2, §3

[6] = test system: Normal human skin fibroblast cells; experiment: MTT assay, cytotoxicity on normal fibroblasts (control); type: cell-based; details: up to 100 μM; for IC50: MTT, 72 h incubation, mean of three independent experiments ± SD, IC50 > 100 means inhibition <10% at 100 μM, read-out: IC50 FIBRO
Experimental: as §1, §3

[7] = test system: K562 cells; experiment: Annexin V-FITC/PI apoptosis assay by flow cytometry; type: cell-based; details: 25 and 50 μM, 24 h
Experimental: In this study we also tested in vitro the nucleoside-alkyne derivatives (namely ALK-A, ALK-G, ALK-dG and ALK-dU) and the N3-BA building blocks (namely 3α-N3-CDC, 3α-N3-UDC, 3α-N3-TUDCA, 23-N3-nor-CDC and 23-N3-nor-UDC). […] (Table 1). To determine whether the antiproliferative activity induced by dA-nor-CDC was related to apoptosis, as previously reported for the corresponding dA-CDC conjugate, K562 cells were treated with compound dA-nor-CDC (25 and 50 μM) for 24 h, then assayed by flow cytometry analysis with Annexin V-FITC staining.
The percentage of apoptotic cells was assessed using the Annexin V assay (Clontech Laboratories, Inc. A Takara Bio Company, Mountain View, CA, USA). Propidium iodide (PI) was used to avoid necrotic cell detection (Annexin−/PI+). The drug-induced apoptotic rate (Annexin+/PI− and Annexin V+/PI+) was compared with the apoptosis in the absence of the drugs used as control (spontaneous apoptosis). K562 cells were cultured in RPMI + 10% FBS in a 6-weels plate for 24 h in the presence of compounds dA-nor-CDC at concentration of 50 and 25 μM. […] Incubation with annexin V for 15 min on ice in dark was directly followed by flow cytometric analysis of the cells with a FACScan (Becton Dickinson, San Jose, CA, USA) at 488 nm and quantified using the Cell Quest Pro software (Becton Dickinson).

[8] = Homo sapiens, K562, 72 h, MTT, 72 h incubation, mean of three independent experiments ± SD, IC50 > 50 means inhibition <20% at 50 μM, read-out: IC50 K562
[9] = Homo sapiens, Skin fibroblast, 72 h
[10] = MTT, 72 h incubation, mean of three independent experiments ± SD, IC50 > 50 means inhibition <20% at 50 μM, read-out: IC50 K562

Row | SMILES | IC50 [4, 8] [µM] | IC50 ([5]; Homo sapiens, HCT-116, 72 h) [µM] | IC50 [6, 9] [µM] | also measured
1 | COC(=O)CCC(C)[C@H]1CCC2C3C(CC[C@@]21C)[C@@]1(C)CC[C@@H](n2cc(CCCCC#Cc4nc5c(N)ncnc5n4[C@H]4C[C@H](O)[C@@H](CO)O4)nn2)CC1C[C@@H]3O (stereo partly shown) [dA-UDC] | – | – | – | IC50 [1]: > 100 µM; IC50 [2]: > 200 µM; IC50 [3]: > 200 µM
2 | COC(=O)CCC(C)[C@H]1CCC2C3C(CC[C@@]21C)[C@@]1(C)CC[C@@H](n2cc(CCCCC#Cc4nc5c(=O)[nH]c(N)nc5n4[C@H]4C[C@H](O)[C@@H](CO)O4)nn2)CC1C[C@@H]3O (stereo partly shown) [dG-UDC] | > 50 | > 50 | > 100 | –
3 | CC(CCn1cc(CCCCC#Cc2nc3c(=O)[nH]c(N)nc3n2[C@H]2C[C@H](O)[C@@H](CO)O2)nn1)[C@H]1CCC2C3C(CC[C@@]21C)[C@@]1(C)CC[C@@H](O)CC1C[C@@H]3O (stereo partly shown) [dG-nor-UDC] | > 50 | > 50 | > 100 | –
4 | CC(CCn1cc(CCCCC#Cc2nc3c(N)ncnc3n2C2OC(CO)C(O)C2O)nn1)C1CCC2C3C(O)CC4CC(O)CCC4(C)C3CCC12C (stereo not shown) [A-nor-CDC] | – | 44.1 ± 2.5 | > 100 | IC50 [4, 10]: ≤ 25 µM and 23.6 µM
5 | CC(CCn1cc(CCCCC#Cc2nc3c(=O)[nH]c(N)nc3n2[C@@H]2O[C@H](CO)[C@@H](O)[C@H]2O)nn1)[C@H]1CCC2C3C(CC[C@@]21C)[C@@]1(C)CC[C@@H](O)CC1C[C@@H]3O (stereo partly shown) [G-nor-UDC] | > 50 | > 50 | > 100 | –
6 | CC(CCC(=O)NCCS(=O)(=O)O)[C@H]1CCC2C3C(CC[C@@]21C)[C@@]1(C)CC[C@@H](N=[N+]=[N-])CC1C[C@@H]3O (stereo partly drawn) [3α-N3-TUDCA, (3α-Azido-7β-hydroxy-5β-cholan-24-oyl)-2-aminoethanesulfonic Acid] | > 50 | > 50 | > 100 | cytotoxicity against K562 (in words) ([4]; 10, 25 and 50 μM, 72 h): not be cytotoxic; cytotoxicity against HCT116 (in words) ([5]; 10, 25 and 50 μM, 72 h): not be cytotoxic; cytotoxicity towards fibroblast cells (in words) ([6]; 72 h): not be cytotoxic
7 | CC(CCC(=O)NCCS(=O)(=O)O)[C@H]1CCC2C3C(CC[C@@]21C)[C@@]1(C)CC[C@@H](n2cc(CCCCC#Cc4nc5c(=O)[nH]c(N)nc5n4[C@H]4C[C@H](O)[C@@H](CO)O4)nn2)CC1C[C@@H]3O (stereo partly shown) [dG-TUDCA] | > 50 | > 50 | > 100 | –
8 | COC(=O)CCC(C)C1CCC2C3C(O)CC4CC(n5cc(CCCCC#Cc6nc7c(N)ncnc7n6C6OC(CO)C(O)C6O)nn5)CCC4(C)C3CCC12C (stereo not shown) [A-CDC] | 43.5 ± 1.3 | – | > 100 | IC50 [5]: ≤ 25 µM and 23.1 µM
9 | CC(CCn1cc(CCCCC#Cc2nc3c(N)ncnc3n2[C@H]2C[C@H](O)[C@@H](CO)O2)nn1)[C@H]1CCC2C3C(CC[C@@]21C)[C@@]1(C)CC[C@@H](O)CC1C[C@H]3O (stereo partly shown) [dA-nor-CDC] | ≤ 25 | ≤ 25 | ~100 | induction of apoptosis (in words) [7]: induced apoptosis in a dose dependent manner; IC50 [4, 10]: 16.2 ± 2.2 µM; IC50 [5]: 17 ± 2.5 µM; IC50 [6]: 91.5 ± 3.5 µM
10 | COC(=O)CCC(C)[C@H]1CCC2C3C(CC[C@@]21C)[C@@]1(C)CC[C@@H](n2cc(CCCCC#Cc4nc5c(N)ncnc5n4[C@H]4C[C@H](O)[C@@H](CO)O4)nn2)CC1C[C@H]3O (stereo partly shown) [dA-CDC] | – | – | – | IC50 [1]: 8.5 ± 4 µM; IC50 [2]: > 200 µM; IC50 [3]: > 200 µM
11 | CC(CCn1cc(CCCCC#Cc2nc3c(N)ncnc3n2[C@H]2C[C@H](O)[C@@H](CO)O2)nn1)[C@H]1CCC2C3C(CC[C@@]21C)[C@@]1(C)CC[C@@H](O)CC1C[C@@H]3O (stereo partly shown) [dA-nor-UDC] | > 50 | 44.8 ± 3.5 | > 100 | IC50 ([4]; Homo sapiens, K562, 72 h, extrapolated beyond the highest tested concentration of 50 μM, 72 h, read-out: IC50 K562, extrapolated value): 87.1 µM
12 | C#CCCCCC#Cc1nc2c(N)ncnc2n1[C@H]1C[C@H](O)[C@@H](CO)O1 [ALK-dA, 8-(1,7-Octadynyl)-2′-deoxyadenosine] | – | – | – | IC50 [1]: > 50 µM; IC50 [2]: > 50 µM; IC50 [3]: > 100 µM
13 | CC(CCn1cc(CCCCC#Cc2cn([C@H]3C[C@H](O)[C@@H](CO)O3)c(=O)[nH]c2=O)nn1)[C@H]1CCC2C3C(CC[C@@]21C)[C@@]1(C)CC[C@@H](O)CC1C[C@@H]3O (stereo partly shown) [dU-nor-UDC] | ≤ 25 | 43 ± 3.5 | > 100 | IC50 [4, 10]: 24.8 ± 1.5 µM
14 | CC(CCC(=O)NCCS(=O)(=O)O)[C@H]1CCC2C3C(CC[C@@]21C)[C@@]1(C)CC[C@@H](n2cc(CCCCC#Cc4nc5c(=O)[nH]c(N)nc5n4[C@@H]4O[C@H](CO)[C@@H](O)[C@H]4O)nn2)CC1C[C@@H]3O (stereo partly shown) [G-TUDCA] | > 50 | > 50 | > 100 | –
15 | CC(CCn1cc(CCCCC#Cc2nc3c(N)ncnc3n2C2OC(CO)C(O)C2O)nn1)C1CCC2C3C(O)CC4CC(O)CCC4(C)C3CCC12C (stereo not shown) [A-nor-UDC] | – | – | – | IC50 [4, 10]: > 50 µM; IC50 [5]: > 50 µM; IC50 [6]: > 100 µM
16 | COC(=O)CCC(C)[C@H]1CCC2C3C(CC[C@@]21C)[C@@]1(C)CC[C@@H](n2cc(CCCCC#Cc4nc5c(=O)[nH]c(N)nc5n4[C@@H]4O[C@H](CO)[C@@H](O)[C@H]4O)nn2)CC1C[C@@H]3O (stereo partly shown) [G-UDC] | > 50 | > 50 | > 100 | –
17 | C#CCCCCC#Cc1nc2c(=O)[nH]c(N)nc2n1[C@H]1C[C@H](O)[C@@H](CO)O1 [ALK-dG, 8-(1,7-Octadynyl)-2′-deoxyguanosine] | > 50 | > 50 | > 100 | –
18 | CC(CCn1cc(CCCCC#Cc2nc3c(=O)[nH]c(N)nc3n2[C@@H]2O[C@H](CO)[C@@H](O)[C@H]2O)nn1)[C@H]1CCC2C3C(CC[C@@]21C)[C@@]1(C)CC[C@@H](O)CC1C[C@H]3O (stereo partly shown) [G-nor-CDC] | > 50 | > 50 | > 100 | –
19 | CC(CCN=[N+]=[N-])[C@H]1CCC2C3C(CC[C@@]21C)[C@@]1(C)CC[C@@H](O)CC1C[C@H]3O (stereo partly drawn) [23-N3-nor-CDC, 3α,7α-Dihydroxy-5β-23-azido-24-norcholane] | 21 ± 1.2 | 25 ± 2 | 79 ± 3.1 | –
20 | N.N.[Cl][Pt][Cl] [CISPLATIN, cisplatin, reference compound] | – | – | – | IC50 [4, 10]: 5.4 ± 1 µM; IC50 [5]: 8.5 ± 1.2 µM; IC50 [6]: 23.6 ± 3.5 µM
21 | C#CCCCCC#Cc1nc2c(=O)[nH]c(N)nc2n1[C@@H]1O[C@H](CO)[C@@H](O)[C@H]1O [ALK-G, 8-(1,7-Octadynyl)-guanosine] | > 50 | > 50 | > 100 | –
22 | COC(=O)CCC(C)[C@H]1CCC2C3C(CC[C@@]21C)[C@@]1(C)CC[C@@H](n2cc(CCCCC#Cc4nc5c(=O)[nH]c(N)nc5n4[C@@H]4O[C@H](CO)[C@@H](O)[C@H]4O)nn2)CC1C[C@H]3O (stereo partly shown) [G-CDC] | > 50 | ≤ 25 | > 100 | IC50 [5]: 25.3 ± 3.8 µM
